ChEMBL document CHEMBL1201862, “PubChem BioAssay data set” (2004)
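Method: 48-hour compound exposure of cells in 96-well plates, five concentrations, linear interpolation of endpoints. Here, GI50 denotes the concentration required for 50% inhibition of growth.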 Active and inactive are the calls of the source. Rule as the data show it: active = GI50 up to about 1.1 µM and inactive = higher. Where a SMILES comes first, the peptide text is derived from it.

Columns and labels:
Experiment in all cases: NCI tumour cell line growth inhibition, 48 h
A498 = system: A498
A549 = system: A549
CAKI-1 = system: CAKI-1
COLO 205 = system: COLO 205
HL-60 = system: HL-60
HOP-62 = system: HOP-62
MCF7 = system: MCF7
MDA-MB-231 = system: MDA-MB-231
MDA-N = system: MDA-N
MOLT-4 = system: MOLT-4
NCI-H226 = system: NCI-H226
NCI-H460 = system: NCI-H460
NCI-H522 = system: NCI-H522
NCI/ADR-RES = system: NCI/ADR-RES
OVCAR-3 = system: OVCAR-3
OVCAR-8 = system: OVCAR-8
SK-MEL-28 = system: SK-MEL-28
SK-MEL-5 = system: SK-MEL-5
SN12C = system: SN12C
TK-10 = system: TK-10

Measured: GI50

O=[N+]([O-])c1ccc(NS(=O)(=O)C(F)(F)F)cc1
inactive: A498 > 100 µM | A549 > 100 µM | CAKI-1 > 100 µM | COLO 205 > 100 µM | HL-60 > 100 µM | HOP-62 > 100 µM | MCF7 > 100 µM | MDA-MB-231 > 100 µM | MDA-N > 100 µM | MOLT-4 > 100 µM | NCI-H226 > 100 µM | NCI-H460 > 100 µM | NCI-H522 22.1 µM | NCI/ADR-RES > 100 µM | OVCAR-3 > 100 µM | OVCAR-8 > 100 µM | SK-MEL-28 > 100 µM | SK-MEL-5 > 100 µM | SN12C > 100 µM | TK-10 > 100 µM

COc1c2c(cc3c1C(O)N1CC[C@]34[C@H]3O[C@H]3[C@H](OC)C[C@@H]14)OCO2 (stereo partly specified)
inactive: A498 50.5 µM | A549 > 100 µM | CAKI-1 > 100 µM | COLO 205 97.9 µM | HL-60 1.18 µM | HOP-62 35.8 µM | MCF7 35 µM | MDA-MB-231 > 100 µM | MDA-N 25.3 µM | MOLT-4 > 100 µM | NCI-H226 > 100 µM | NCI-H460 72.3 µM | NCI-H522 31.9 µM | NCI/ADR-RES > 100 µM | OVCAR-3 16.4 µM | OVCAR-8 > 100 µM | SK-MEL-28 > 100 µM | SK-MEL-5 64.6 µM | SN12C > 100 µM | TK-10 > 100 µM

COC(=O)Nc1nc2cc(S(=O)(=O)NC(CC(C)C)C(=O)OC)ccc2[nH]1 (stereo unspecified)
inactive: A498 3.13 µM | A549 7.29 µM | CAKI-1 3.66 µM | COLO 205 3.22 µM | HL-60 2.69 µM | HOP-62 3.48 µM | MCF7 1.65 µM | MDA-MB-231 6.32 µM | MOLT-4 3.67 µM | NCI-H226 10.8 µM | NCI-H460 4.17 µM | NCI/ADR-RES 6.08 µM | OVCAR-8 3.96 µM | SK-MEL-28 4.35 µM | SN12C 7.89 µM | TK-10 6.47 µM
active: MDA-N 0.414 µM | NCI-H522 0.197 µM | OVCAR-3 0.721 µM | SK-MEL-5 0.7 µM

Cc1nc(C)c(C(=O)NNC(=O)Cc2ccccc2)cc1C(=O)NNC(=O)Cc1ccccc1
inactive: A498 > 100 µM | A549 > 100 µM | CAKI-1 > 100 µM | COLO 205 > 100 µM | HL-60 > 100 µM | HOP-62 > 100 µM | MCF7 > 100 µM | MDA-MB-231 > 100 µM | MDA-N > 100 µM | MOLT-4 > 100 µM | NCI-H226 > 100 µM | NCI-H460 > 100 µM | NCI-H522 > 100 µM | NCI/ADR-RES > 100 µM | OVCAR-3 > 100 µM | OVCAR-8 > 100 µM | SK-MEL-5 > 100 µM | SN12C > 100 µM | TK-10 > 100 µM

CCC(C)C(NC(=O)C1CCCN1C(=O)C(CC(C)C)NC(=O)C(CC(C)C)NC(=O)C(N)CC(C)C)C(=O)NC(C(=O)NCC(=O)NC(CC(N)=O)C(=O)NC(CC(C)C)C(=O)NC(CC(C)C)C(=O)NC(CC(C)C)C(N)=O)C(C)C (stereo unspecified) (H-LLLPIVGNLLL-NH2; configuration not given here)
inactive: A498 > 50 µM | A549 > 50 µM | CAKI-1 > 50 µM | COLO 205 > 50 µM | HL-60 > 50 µM | HOP-62 > 50 µM | MCF7 > 50 µM | MDA-MB-231 > 50 µM | MDA-N > 50 µM | MOLT-4 > 50 µM | NCI-H226 > 50 µM | NCI-H522 > 50 µM | NCI/ADR-RES > 50 µM | OVCAR-3 > 50 µM | OVCAR-8 > 50 µM | SK-MEL-28 > 50 µM | SK-MEL-5 > 50 µM | SN12C > 50 µM | TK-10 > 50 µM

CSCC[C@H]1C(=O)N=C(N)N1C(=O)OCc1ccccc1
inactive: A498 72.9 µM | CAKI-1 20 µM | COLO 205 18.7 µM | HL-60 14.5 µM | HOP-62 > 100 µM | MCF7 28.8 µM | MDA-MB-231 66.5 µM | MDA-N 28.9 µM | MOLT-4 18.7 µM | NCI-H226 30 µM | NCI-H460 41 µM | NCI-H522 19.7 µM | NCI/ADR-RES 30.8 µM | OVCAR-3 38.7 µM | OVCAR-8 29 µM | SK-MEL-28 24.2 µM | SK-MEL-5 46.8 µM | SN12C 31 µM | TK-10 37.9 µM

CC(=O)OC1/C(=C/c2ccc([N+](=O)[O-])cc2)C[C@H]2[C@@H]3CC=C4C[C@@H](OC(C)=O)CC[C@]4(C)[C@H]3CC[C@]12C (stereo partly specified)
inactive: A498 > 52.6 µM | A549 > 100 µM | CAKI-1 > 48.9 µM | COLO 205 > 54.6 µM | HL-60 2.61 µM | HOP-62 34.7 µM | MCF7 > 100 µM | MDA-MB-231 58.3 µM | MDA-N > 100 µM | NCI-H226 4.63 µM | NCI-H460 > 100 µM | NCI-H522 > 91.8 µM | NCI/ADR-RES > 43 µM | OVCAR-3 > 100 µM | OVCAR-8 > 100 µM | SK-MEL-28 > 100 µM | SK-MEL-5 > 100 µM | SN12C > 100 µM | TK-10 29.6 µM
